Source: US20220143183A1, “PHOTOSWITCHABLE PROTACS AND SYNTHESIS AND USES THEREOF” (New York University, priority 2019, published 2022)

Tests used:
BRD2 = molecular target: T1, BRD2 (Homo sapiens, UniProt P25440); assay: Western blot of BRD2 levels in RS4;11 cells; type: cell-based
T1 construct: endogenous in cells; host or cells: RS4;11 (ATCC CRL-1873)
Experimental: (§1) Next, the light dependence of targeted protein degradation was analyzed in RS4;11 cells by western blot analysis of the BET proteins BRD2-4 (FIG. 5). To this end, cells were treated with increasing concentrations of our lead compound, PHOTAC-I-3, for 4 h and pulse-irradiated with 390 nm light (100 ms every 10 s). […] The cereblon-dependent degradation was confirmed by a competition experiment (FIG. 5E), and further validated by siRNA knockdown of cereblon (FIG. 13).
One of the principal advantages of photoswitches over caged compounds is their reversibility.
(§2) Cells were incubated with different concentrations of selected compounds. They were placed in a light-proof box and preirradiated for 1 min at 390 nm followed by 100 ms pulses every 10 s or were kept in the dark for 4 h.
(§3) Cultured cells were collected by centrifugation and washed twice with cold PBS. The supernatant was removed and each cell pellet was lysed in 100 μL NP40-Cell-Lysis Buffer+0.1% SDS+1 mM PMSF+ protease inhibitor cocktail (Sigma Aldrich) for 30 min on ice, with vortexing at 10-minute intervals. Afterwards, cells were centrifuged at 13.000 rpm for 10 min at 4° C. Samples were stored on ice and the supernatant was collected for protein concentration determination using a Thermofisher Scientific Pierce™ Coomassie Plus (Bradford) Assay Kit.
The samples were diluted each with 5 μL Laemmli sample buffer Invitrogen (NuPAGE LDS Sample Buffer 4×) and 1 μL DTT, heated at 95° C. for 5 min. Respectively 20 μL of each sample was loaded in a lane of a Bio-Rad Mini-PROTEAN TGX precast Gel, 4-20%, used with tris-glycine SDS Running buffer. The gel ran 5 min at 50 V, then 35 min at 140 V. Next step was the electrotransfer to a polyvinylidene difluoride (PVDF) membrane which was carried out using an iBlot™ 2 Dry Blotting System set to the standard program. After the transfer, the membrane was washed with 25 mL TB ST for 5 min and subsequent incubated in 25 mL of blocking buffer (1×TBST+5% nonfat dry milk, Blotto, Santa Cruz Biotechnology) for 1 h at room temperature. […]

RS4;11 lymphoblast cells = assay: Cell viability assay (Promega MTS), dark or pulsed irradiation; type: cell-based, human; conditions: 72 h; for EC50: Homo sapiens
Experimental: Optical control of BRD2-4 with PHOTACs. To assess the biological activity of the PHOTACs, their effect on the viability of RS4;11 lymphoblast cells was tested. Cells were treated in a 96-well plate with increasing concentrations of PHOTACs and were either irradiated with 390 nm light pulses (100 ms every 10 s) for 72 h or incubated with the compound in the dark. Subsequently, cell viability assays (Promega MTS) were performed, as previously described.
Cell culture. The human acute lymphoblastic leukemia RS4;11 (ATCC® CRL-1873™) cell line was purchased from the American Type Culture Collection and cultured in RPMI1640 medium (Gibco) with 10% fetal bovine serum (FBS) and 1% penicillin/streptomycin (PS) in a humidified incubator at 37° C. with 5% CO2 in air. Cells were divided every 2-3 days and the concentration was maintained between 1×10^5 and 1×10^6 cells/mL. For the experiments compounds were serially diluted in RPMI160 without the dye phenol red (Gibco) to reduce the influence of the dye by absorption. Azobenzene stocks and dilutions were strictly kept in the dark and prepared under red light conditions.
Colorimetric MTT Assays. The activity of dehydrogenase enzymes in metabolically active cells, as a quantitative measurement for cytotoxicity and proliferation, was determined by colorimetric measurement of the reduction of [3-(4,5-dimethylthiazol-2-yl)-5-(3-carboxymethoxyphenyl)-2-(4-sulfophenyl)-2H-tetrazolium (MTS) to formazan. The absorbance of formazan at 490 nm was measured on a FLUOstar Omega microplate reader (BMG Labtech).
Cells were treated with different concentrations, ranging from 10 μM to 1 nM, of our compounds and incubated on a 96-well plate for 72 h. They were placed in light-proof boxes and exposed to the lighting conditions specified in the experiment for 72 h. Next, 10 μL of Promega CellTiter 96® AQueous One Solution Reagent was added to each well and incubated for further 4-7 hours. The absorbance at 490 nm was then recorded with a 96-well plate reader.
LED illumination. For illumination of the cells we used the cell disco system as previously described in the literature^[25]. 390 nm 5 mm LEDs were purchased from Roithner Lasertechnik. Cells were preirradiated for 1 min at 390 nm, followed by 100 ms pulses every 10 s in 96- or 6-well plates.

PARP-1 = assay: Immunoblot of PARP-1 cleavage in RS4;11 cells; type: cell-based, human; conditions: 1 μM, sustained 390 nm pulse irradiation
Experimental: FIG. 5 depicts optical control of BRD2-4 levels. A) Immunoblot analysis after treatment of RS4;11 cells with PHOTAC-I-3 for 4 h at different concentrations. Cells were either irradiated with 100 ms pulses of 390 nm light every 10 s (left) or kept in the dark (right). B) Time course of BRD2-4 degradation, c-MYC levels and PARP1 cleavage assayed by immunoblotting. RS4;11 cells were treated with PHOTAC-I-3 (1 μM) and collected at the indicated time points. PHOTAC-I-3 has no effect on BRD2-4 levels in the dark over several hours. […] D) Color-dosing: Wavelength dependence of BRD2/4 degradation promoted by 300 nM PHOTAC-I-3. E) Immunoblot analysis after treatment of RS4;11 cells with PHOTAC-I-3 and combinations with lenalidomide or (+)-JQ1 for 4 h to confirm a cereblon-based mechanism. Cells were either irradiated with 100 ms pulses of 390 nm light every 10 s (left) or kept in the dark (right). F) Optical degradation of BRD4 with the thalidomide derivative PHOTAC-I-10. Immunoblot analysis of RS4;11 cells after treatment with PHOTAC-I-10 for 4 h at different concentrations which were either irradiated with 100 ms pulses of 390 nm light every 10 s (left) or kept in the dark (right). […] The slight effect on c-MYC can be explained by inhibition of BRD4 with the (+)-JQ1 derivative PHOTAC-I-3 in the absence of targeted degradation.

BRD3 = molecular target: T2, BRD3 (Homo sapiens, UniProt Q15059); assay: Western blot of BRD3 levels in RS4;11 cells; type: cell-based
T2 construct: endogenous in cells; host or cells: RS4;11 (ATCC CRL-1873)
Experimental: as §1, §2, §3
The samples were diluted each with 5 μL Laemmli sample buffer Invitrogen (NuPAGE LDS Sample Buffer 4×) and 1 μL DTT, heated at 95° C. for 5 min. […]

T1 sequence (P25440 whole entry): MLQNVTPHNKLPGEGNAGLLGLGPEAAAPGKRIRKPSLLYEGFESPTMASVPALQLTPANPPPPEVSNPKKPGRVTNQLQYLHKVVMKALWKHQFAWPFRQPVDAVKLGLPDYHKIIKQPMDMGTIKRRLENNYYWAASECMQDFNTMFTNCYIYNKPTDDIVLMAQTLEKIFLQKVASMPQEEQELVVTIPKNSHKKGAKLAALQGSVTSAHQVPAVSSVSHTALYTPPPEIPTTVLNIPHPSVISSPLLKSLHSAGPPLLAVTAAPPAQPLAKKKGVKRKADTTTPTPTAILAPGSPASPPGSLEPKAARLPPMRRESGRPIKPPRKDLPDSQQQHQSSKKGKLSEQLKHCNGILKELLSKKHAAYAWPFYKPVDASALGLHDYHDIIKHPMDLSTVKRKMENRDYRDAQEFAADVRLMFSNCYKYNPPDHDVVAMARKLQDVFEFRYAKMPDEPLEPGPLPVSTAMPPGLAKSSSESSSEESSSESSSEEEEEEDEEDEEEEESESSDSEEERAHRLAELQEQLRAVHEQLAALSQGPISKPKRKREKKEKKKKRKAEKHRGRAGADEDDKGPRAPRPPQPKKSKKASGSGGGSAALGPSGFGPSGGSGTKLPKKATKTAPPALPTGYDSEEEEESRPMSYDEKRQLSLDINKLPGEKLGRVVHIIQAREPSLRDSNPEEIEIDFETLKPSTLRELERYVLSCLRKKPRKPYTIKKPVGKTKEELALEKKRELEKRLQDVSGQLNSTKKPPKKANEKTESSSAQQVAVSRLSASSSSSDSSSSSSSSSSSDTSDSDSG
T2 sequence (Q15059 whole entry): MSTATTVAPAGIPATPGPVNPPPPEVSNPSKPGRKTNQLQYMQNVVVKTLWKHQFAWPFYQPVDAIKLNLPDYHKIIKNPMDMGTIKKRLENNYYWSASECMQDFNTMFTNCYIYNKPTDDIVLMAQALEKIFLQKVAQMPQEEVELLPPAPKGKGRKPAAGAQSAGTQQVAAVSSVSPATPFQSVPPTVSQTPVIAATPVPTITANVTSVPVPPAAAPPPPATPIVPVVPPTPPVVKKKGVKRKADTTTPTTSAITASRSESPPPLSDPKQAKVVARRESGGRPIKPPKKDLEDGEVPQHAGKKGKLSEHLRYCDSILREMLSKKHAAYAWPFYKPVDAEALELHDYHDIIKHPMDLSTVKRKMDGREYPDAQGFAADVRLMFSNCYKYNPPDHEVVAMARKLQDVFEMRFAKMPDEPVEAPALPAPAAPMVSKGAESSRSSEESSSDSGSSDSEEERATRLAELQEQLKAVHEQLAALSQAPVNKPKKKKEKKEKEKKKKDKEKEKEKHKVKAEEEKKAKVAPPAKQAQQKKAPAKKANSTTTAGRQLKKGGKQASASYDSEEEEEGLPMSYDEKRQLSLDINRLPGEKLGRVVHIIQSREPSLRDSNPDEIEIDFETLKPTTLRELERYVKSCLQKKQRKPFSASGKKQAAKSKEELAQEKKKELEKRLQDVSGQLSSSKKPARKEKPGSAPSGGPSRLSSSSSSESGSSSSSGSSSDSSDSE

In the case of COc1cc(/N=N/c2cccc3c2CN(C2CCC(=O)NC2=O)C3=O)cc(OC)c1OCC(=O)NCCCCNC(=O)C[C@@H]1N=C(c2ccc(Cl)cc2)c2c(sc(C)c2C)-n2c(C)nnc21 (stereo partly drawn) [PHOTAC-I-3, 2-((S)-4-(4-chlorophenyl)-2,3,9-trimethyl-6H-thieno[3,2-f][1,2,4]triazolo[4,3-a][1,4]diazepin-6-yl)-N-(4-(2-(4-((E)-(2-(2,6-dioxopiperidin-3-yl)-1-oxoisoindolin-4-yl)diazenyl)-2,6-dimethoxyphenoxy)acetamido)butyl)acetamide], the “exposure time after which BRD2 is largely absent” value (BRD2; 1 μM, 390 nm pulse irradiation) is reported as 1.5 h, the “cellular BRD2 levels in rescue experiment” value (BRD2; 1 min 390 nm, then pulse irradiated with 525 nm) is reported as “initially decreased but, subsequently, recovered faster than when left in the dark” and the BRD2 degradation (BRD2; 4 h, 390 nm, compared with BRD3 and BRD4) is reported as “degraded to a lesser extent and within a narrower concentration range”. The “EC50 difference dark vs 390 nM” value (RS4;11 lymphoblast cells) was 7.1 fold, the “light dependence of activity in viability assay” value (RS4;11 lymphoblast cells; dark vs pulsed 390 nm irradiation) was “largest difference between light and dark activity” and the EC50 (RS4;11 lymphoblast cells; RS4-11, light or radiation study, irradiated with 390 nm light pulses (100 ms every 10 s)) was 0.0885 µM. The EC50 (RS4;11 lymphoblast cells; RS4-11, in the dark) was 0.631 µM, the “PARP-1 cleavage (indicator of apoptosis)” value (PARP-1) was “increasing cleavage of PARP-1” and the “exposure time after which BRD3 is largely absent” value (BRD3; 1 μM, 390 nm pulse irradiation) was 1.5 h. For the same compound, the BRD3 levels (BRD3; 4 h, irradiated with violet light (390 nm)) was “significantly reduced”.
